Source: patent publication US8241680B2, “Nutraceutical product containing anatabine and yerba maté” (priority 2010, dated 2012)
One block for each compound: values may come before it.

Experiments:
[1] = Stability analysis of Formula I (purity by HPLC on storage); assay type: physicochemical
From the text: Several batches of Formula I produced by reacting benzophenoneimine with aminomethylpyridine in the absence of benzene were stored refrigerated and also at room temperature.

[2] = Stability analysis of anatabine base with and without BHT as a preservative; assay type: physicochemical
Experimental: See, for example, Tables 3 and 4 in Examples 4 and 5, respectively. Purity of the anatabine may be retained for extended periods of time. […] Further, anatabine remains stable when stored at a variety of temperatures. For example, the anatabine retains the indicated purity when stored at −20° C. to −10° C., −20° C. to 0° C., −10° C. to 0° C., 0° C. to 4° C., 2° C. to 8° C., 5° C. to 10° C., 10° C. to 15° C., 15° C. to 25° C., or 25° C. to 28° C. Stability is determined by any suitable art-recognized method. For example, anatabine stability may be monitored by high performance liquid chromatography (HPLC), liquid chromatography-mass spectroscopy (LC-MS), or nuclear magnetic resonance (NMR).
Anatabine base stability was analyzed with and without BHT (3,5-di-tert-butyl-4-hydroxytoluene). The initial purity of BHT-free anatabine base was 94.95%. The initial purity of anatabine base with BHT was 94.87%.

Purity (%) (stored at 2-8° C.) ([1]; day 1, 2-8° C.): 88.61%
Purity (%) (stored at 25-28° C.) ([1]; day 1, 25-28° C.): 88.93%
Purity (%) (stored at 2-8° C.) ([1]; day 2, 2-8° C.): 88.83%
Purity (%) (stored at 25-28° C.) ([1]; day 2, 25-28° C.): 85.49%
Purity (%) (stored at 2-8° C.) ([1]; day 3, 2-8° C.): 88.30%
Purity (%) (stored at 25-28° C.) ([1]; day 3, 25-28° C.): 88.02%
Purity (%) (stored at 2-8° C.) ([1]; day 6, 2-8° C.): 88.83%
Purity (%) (stored at 25-28° C.) ([1]; day 6, 25-28° C.): 86.62%
Purity (%) (stored at 2-8° C.) ([1]; day 12, 2-8° C.): 88.75%
Purity (%) (stored at 25-28° C.) ([1]; day 12, 25-28° C.): 87.47%
Purity (%) (stored at 2-8° C.) ([1]; day 18, 2-8° C.): 88.46%
Purity (%) (stored at 25-28° C.) ([1]; day 18, 25-28° C.): 87.25%
Purity on storage ([1]; refrigerated): constant
Deviation of purity on storage ([1]; room temperature): 1-2%
SMILES: c1ccc(C(=NCc2cccnc2)c2ccccc2)cc1 [Formula I, benzylhydrylidene-pyridin-3-ylmethyl-amine]

SMILES: C1=CCC(c2cccnc2)NC1 (stereo not shown) [anatabine base, anatabine]
Initial purity ([2]; BHT-free): 94.95%
Purity (%) (with BHT) ([2]; day 1, 2-8° C., with BHT): 93.26%
Purity (%) (without BHT) ([2]; day 1, 2-8° C.): 94.44%
Purity (%) (with BHT) ([2]; day 1, 25-28° C., with BHT): 93.27%
Purity (%) (without BHT) ([2]; day 1, 25-28° C.): 89.63%
Purity (%) (with BHT) ([2]; day 1, −20° C., with BHT): 94.26%
Purity (%) (without BHT) ([2]; day 1, −20° C.): 93.90%
Purity (%) (with BHT) ([2]; day 2, 2-8° C., with BHT): 94.83%
Purity (%) (without BHT) ([2]; day 2, 2-8° C.): 94.05%
Purity (%) (with BHT) ([2]; day 2, 25-28° C., with BHT): 92.73%
Purity (%) (without BHT) ([2]; day 2, 25-28° C.): 87.59%
Purity (%) (with BHT) ([2]; day 2, −20° C., with BHT): 94.73%
Purity (%) (without BHT) ([2]; day 2, −20° C.): 94.62%
Purity (%) (with BHT) ([2]; day 3, 2-8° C., with BHT): 94.26%
Purity (%) (without BHT) ([2]; day 3, 2-8° C.): 91.65%
Purity (%) (with BHT) ([2]; day 3, 25-28° C., with BHT): 87.44%
Purity (%) (without BHT) ([2]; day 3, 25-28° C.): 80.74%
Purity (%) (with BHT) ([2]; day 3, −20° C., with BHT): 94.62%
Purity (%) (without BHT) ([2]; day 3, −20° C.): 93.87%
Purity (%) (with BHT) ([2]; day 12, 2-8° C., with BHT): 94.18%
Purity (%) (without BHT) ([2]; day 12, 2-8° C.): 90.12%
Purity (%) (with BHT) ([2]; day 12, 25-28° C., with BHT): 85.10%
Purity (%) (without BHT) ([2]; day 12, 25-28° C.): 79.59%
Purity (%) (with BHT) ([2]; day 12, −20° C., with BHT): 94.74%
Purity (%) (without BHT) ([2]; day 12, −20° C.): 94.01%
Initial purity ([2]; with BHT): 94.87%
